Key:
[1] = molecular target: T1, FLK-1 receptor (Mus musculus, UniProt P35918); test: FLK-1 ELISA (kinase activity of the FLK-1 receptor in FLK-1/NIH3T3 cells, VEGF stimulated); format: cell-based
T1 construct: expressed in transfected cells; host or cells: NIH3T3 C7#3
How it was run: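 An ELISA using affinity-purified rabbit anti-FLK-1 antiserum on anti-rabbit IgG-coated plates measured VEGF-stimulated FLK-1 kinase activity. NIH3T3 C7#3 cells carrying FLK-1 were serum-starved (0.1% FBS) overnight, then exposed to compound (final 1:200 dilution, 0.5% DMSO) for two hours at 37 °C.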

[2] = tested on: MET; test: MET biochemical kinase assay; design: species or system human; concentration or dose not given beside the values
How it was run: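 Capture ELISA: anti-rabbit Fc coat, rabbit anti-MET cytoplasmic domain pAb, lysate MET captured, washed. Compound + kinase buffer (ATP, divalent metals). Readout anti-pTyr-HRP/TMB, colorimetric.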

T1 sequence (P35918 20-1345): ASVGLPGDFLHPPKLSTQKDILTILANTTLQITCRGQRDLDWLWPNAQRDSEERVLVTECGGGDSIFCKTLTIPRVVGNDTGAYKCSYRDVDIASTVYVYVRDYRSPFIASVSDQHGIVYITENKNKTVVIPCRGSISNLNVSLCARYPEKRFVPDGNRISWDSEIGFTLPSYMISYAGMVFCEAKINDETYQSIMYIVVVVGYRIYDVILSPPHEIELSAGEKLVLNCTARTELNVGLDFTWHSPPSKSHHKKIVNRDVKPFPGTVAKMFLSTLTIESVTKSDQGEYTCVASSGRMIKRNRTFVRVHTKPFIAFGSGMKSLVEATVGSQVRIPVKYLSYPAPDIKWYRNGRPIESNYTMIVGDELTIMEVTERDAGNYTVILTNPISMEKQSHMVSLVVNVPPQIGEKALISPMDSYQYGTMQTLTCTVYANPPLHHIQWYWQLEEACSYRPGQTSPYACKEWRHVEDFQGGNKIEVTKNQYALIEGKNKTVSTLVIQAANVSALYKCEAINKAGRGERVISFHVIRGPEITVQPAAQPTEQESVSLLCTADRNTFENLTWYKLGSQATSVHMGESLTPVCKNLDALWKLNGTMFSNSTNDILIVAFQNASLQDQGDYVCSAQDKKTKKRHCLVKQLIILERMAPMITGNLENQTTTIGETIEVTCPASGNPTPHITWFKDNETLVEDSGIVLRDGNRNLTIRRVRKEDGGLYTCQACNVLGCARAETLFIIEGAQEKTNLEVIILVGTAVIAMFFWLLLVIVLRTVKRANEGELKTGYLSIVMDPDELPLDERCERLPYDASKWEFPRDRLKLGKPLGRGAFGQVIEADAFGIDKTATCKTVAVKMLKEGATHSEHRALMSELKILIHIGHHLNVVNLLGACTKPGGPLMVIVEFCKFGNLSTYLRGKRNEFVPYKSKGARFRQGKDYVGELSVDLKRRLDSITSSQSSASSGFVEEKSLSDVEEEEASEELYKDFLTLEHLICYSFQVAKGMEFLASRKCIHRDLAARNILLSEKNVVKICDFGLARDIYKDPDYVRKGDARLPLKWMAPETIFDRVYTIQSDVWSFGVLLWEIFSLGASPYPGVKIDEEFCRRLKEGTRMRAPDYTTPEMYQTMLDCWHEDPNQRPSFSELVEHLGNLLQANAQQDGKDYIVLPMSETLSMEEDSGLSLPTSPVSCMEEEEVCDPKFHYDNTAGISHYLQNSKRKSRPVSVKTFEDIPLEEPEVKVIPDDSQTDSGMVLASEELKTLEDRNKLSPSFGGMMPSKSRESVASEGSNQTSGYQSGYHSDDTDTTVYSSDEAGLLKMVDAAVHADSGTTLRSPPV

SMILES	Fik Kinase %Inhibition [1] [%]	Met Kinase % Inhibition [2] [%]
CNS(=O)(=O)c1ccc2c(c1)C(=Cc1cc(O)ccc1O)C(=O)N2 [10727/D10]	11.4	79.9
CNS(=O)(=O)c1ccc2c(c1)C(=Cc1coc3ccccc3c1=O)C(=O)N2 [10727/D07]	19.7	50.6
CNS(=O)(=O)c1ccc2c(c1)C(=Cc1ccccc1Sc1ccc(Cl)cc1)C(=O)N2 [10727/D05]	8.5	39.9
O=C1Nc2ccc(S(=O)(=O)Nc3ccc(C(F)(F)F)cc3)cc2C1=Cc1cc2c(cc1Cl)OCO2 [10727/E06]	14.2	-2.2
O=C1Nc2ccc(S(=O)(=O)N3CCOCC3)cc2C1=Cc1cc(Cl)cc(Br)c1O [10727/F04]	15.3	92.0
CCN(CC)c1ccc(C=C2C(=O)Nc3ccc(S(=O)(=O)Nc4ccc(C(F)(F)F)cc4)cc32)cc1 [10727/E02]	9.3	28.0
CNS(=O)(=O)c1ccc2c(c1)C(=Cc1cc(OC)cc(OC)c1)C(=O)N2 [10728/D04]	6.8	23.1
O=C1Nc2ccc(S(=O)(=O)N3CCOCC3)cc2C1=Cc1cc2c(cc1Cl)OCO2 [10727/F06]	14.5	37.7
COc1cc(C=C2C(=O)Nc3ccc(I)cc32)cc2c1OCO2 [10728/B11]	-1.0	80.3
N#Cc1ccc(C=C2C(=O)Nc3ccc(S(=O)(=O)Nc4ccc(C(F)(F)F)cc4)cc32)cc1 [10727/E09]	9.3	28.4
O=C1Nc2ccc(S(=O)(=O)N3CCOCC3)cc2C1=Cc1coc2ccccc2c1=O [10727/F07]	21.4	17.9
COc1cccc(OC)c1C=C1C(=O)Nc2ccc(I)cc21 [10728/B03]	-1.3	74.4
COc1cc(N(C)C)ccc1C=C1C(=O)Nc2c(Br)cc(Br)cc21 [10728/A05]	-10.8	31.8
COc1cc(C=C2C(=O)Nc3c(Br)cc(Br)cc32)cc(OC)c1 [10728/A04]	-3.5	28.5
O=C1Nc2ccc(S(=O)(=O)N3CCOCC3)cc2C1=Cc1cc(O)ccc1O [10727/F10]	15.9	93.4
COC(=O)c1[nH]c(C)c(C=C2C(=O)Nc3c(Br)cc(Br)cc32)c1C(=O)OC [10718/A07]	16.2	58.6
O=C1Nc2c(Br)cc(Br)cc2C1=Cc1ccc2c(c1)Cc1ccccc1-2 [10728/A06]	-10.4	19.7
O=C1Nc2ccc(CCCl)cc2C1=Cc1coc2ccccc2c1=O [10727/G07]	7.2	29.6
CNS(=O)(=O)c1ccc2c(c1)C(=Cc1cc3c(cc1Cl)OCO3)C(=O)N2 [10727/D06]	13.1	24.4
COc1cccc(OC)c1C=C1C(=O)Nc2ccc(Br)c(C)c21 [10728/C03]	10.5	16.9

Source: patent publication EP1247803A2, “Indolinone compounds suitable for modulation of protein kinases” (Sugen, Inc., priority 1996, dated 1998)
